Earlier results on one compound are cited in patent US6653298B2, “Composition” (Sterix Limited, priority 2000, dated 2003).

For data set [1] the following is noted: referring to antigonadotropic properties; cited from earlier work.
The conditions of data set [2]: single oral dose 50 μg, FIG. 4; cited from earlier work.

For `C#C[C@]1(O)CC[C@H]2[C@@H]3CCc4cc(O)ccc4[C@H]3CC[C@@]21C` [EE, ethinyl estradiol], in data set [1], the “oestrogenicity in the liver relative to orally applied natural estrogens” value is listed as 4 to 18 times. Besides, the “definition of blood levels (individual variation)” value in data set [2] is “does not lead to well defined blood levels”.
